Several values for one entry are separate records, joined by “and”; a condition that tells them apart may be missing. Equal values may be shown once. Numbers after ± are expanded uncertainties.
Legend:
[1] = molar enthalpy of vaporization or sublimation; conditions: 298.15 K; Crystal; DSC
[2] = mn = molality of the nth substance listed, in mol/kg; conditions: 298.15 K, 101 kPa, Liquid, Vibrating tube method
[3] = refractive index (Na D-line) (dimensionless); mn = molality of the nth substance listed, in mol/kg; conditions: 298.15 K, 101 kPa, Liquid, Standard Abbe refractometry

## c1ccc2c(c1)ccc1cc3c(ccc4ccccc43)cc12 [dibenz[a,h]anthracene]
[1]
  molar enthalpy: 35.4 ± 1.12 kcal/mol

## C(=C\c1ccccc1)/c1ccccc1 [(E)-1,2-diphenylethene]
[1]
  molar enthalpy: 24.6 ± 0.669 kcal/mol

## c1ccc(-c2c(-c3ccccc3)c(-c3ccccc3)c(-c3ccccc3)c(-c3ccccc3)c2-c2ccccc2)cc1 [hexaphenylbenzene]
[1]
  molar enthalpy: 46.8 ± 1.41 kcal/mol

## C(#Cc1ccccc1)c1ccccc1 [1,2-diphenylethyne]
[1]
  molar enthalpy: 22 ± 1.08 kcal/mol

## c1ccc(-c2cccc(-c3ccccc3)c2-c2ccccc2)cc1 [1,2,3-triphenylbenzene] + c1ccccc1
[2]; m1 = 0.00038
  mass density: 873.87 ± 0.78 kg/m3
[2]; m1 = 0.00061
  mass density: 874.054 ± 0.83 kg/m3
[2]; m1 = 0.0007
  mass density: 874.135 ± 0.78 kg/m3
[2]; m1 = 0.0008
  mass density: 874.201 ± 0.67 kg/m3
[3]; m1 = 0.00038
  refractive index: 1.49797 ± 0.00031
[3]; m1 = 0.00061
  refractive index: 1.49809 ± 0.00031
[3]; m1 = 0.0007
  refractive index: 1.49814 ± 0.00031
[3]; m1 = 0.0008
  refractive index: 1.49819 ± 0.00031

## c1ccc(-c2cccc(-c3ccccc3)c2)cc1 [m-terphenyl] + c1ccccc1
[2]; m1 = 0.00482
  mass density: 876.044 ± 0.54 kg/m3
[2]; m1 = 0.00941
  mass density: 878.445 ± 0.53 kg/m3
[2]; m1 = 0.0142
  mass density: 880.914 ± 0.52 kg/m3
[2]; m1 = 0.0215
  mass density: 884.612 ± 0.52 kg/m3
[3]; m1 = 0.00482
  refractive index: 1.49966 ± 0.00031
[3]; m1 = 0.00941
  refractive index: 1.50149 ± 0.00031
[3]; m1 = 0.0142
  refractive index: 1.50336 ± 0.00031
[3]; m1 = 0.0215
  refractive index: 1.50621 ± 0.00031

## c1ccccc1 [benzene] + c1ccc(-c2c3ccccc3cc3ccccc23)cc1
[2]; m2 = 0
  mass density: 873.612 ± 0.69 kg/m3
[3]; m2 = 0
  refractive index: 1.49758 ± 0.00031

## c1ccc(-c2c3ccccc3c(-c3ccccc3)c3c(-c4ccccc4)c4ccccc4c(-c4ccccc4)c23)cc1 [5,6,11,12-tetraphenylnaphthacene]
[1]
  molar enthalpy: 51 ± 1.31 kcal/mol

## c1ccccc1 [benzene] + c1ccc(-c2cccc(-c3ccccc3)c2-c2ccccc2)cc1
[2]; m2 = 0
  mass density: 873.584 ± 0.76 kg/m3
[3]; m2 = 0
  refractive index: 1.49778 ± 0.00031

## c1ccc(-c2cccc(-c3ccccc3)c2)cc1 [m-terphenyl]
[1]
  molar enthalpy: 27.6 ± 0.621 kcal/mol

## c1ccccc1 [benzene] + c1ccc(-c2c(-c3ccccc3)c(-c3ccccc3)c3ccccc3c2-c2ccccc2)cc1
[2]; m2 = 0
  mass density: 873.277 ± 1.3 kg/m3
[3]; m2 = 0
  refractive index: 1.49731 ± 0.00031

## c1ccc(-c2c3ccccc3c(-c3ccccc3)c3ccccc23)cc1 [9,10-diphenylanthracene]
[1]
  molar enthalpy: 36.5 ± 1.27 kcal/mol

## c1ccccc1 [benzene] + C(#Cc1ccccc1)c1ccccc1
[2]; m2 = 0
  mass density: 873.285 ± 0.28 kg/m3
[3]; m2 = 0
  refractive index: 1.49734 ± 0.00031

## C(#Cc1ccccc1)c1ccccc1 [1,2-diphenylethyne] + c1ccccc1
[2]; m1 = 0.00019
  mass density: 873.334 ± 0.34 kg/m3
[2]; m1 = 0.00036
  mass density: 873.403 ± 0.45 kg/m3
[2]; m1 = 0.00042
  mass density: 873.437 ± 0.58 kg/m3
[2]; m1 = 0.00079
  mass density: 873.534 ± 0.28 kg/m3
[3]; m1 = 0.00019
  refractive index: 1.49738 ± 0.00031
[3]; m1 = 0.00036
  refractive index: 1.49743 ± 0.00031
[3]; m1 = 0.00042
  refractive index: 1.49747 ± 0.00031
[3]; m1 = 0.00079
  refractive index: 1.49756 ± 0.00031

## c1ccc(-c2c3ccccc3cc3ccccc23)cc1 [9-phenylanthracene] + c1ccccc1
[2]; m1 = 0.00011
  mass density: 873.687 ± 0.71 kg/m3
[2]; m1 = 0.00032
  mass density: 873.837 ± 0.75 kg/m3
[2]; m1 = 0.00038
  mass density: 873.891 ± 0.91 kg/m3
[2]; m1 = 0.0008
  mass density: 874.047 ± 0.39 kg/m3
[3]; m1 = 0.00011
  refractive index: 1.49764 ± 0.00031
[3]; m1 = 0.00032
  refractive index: 1.49776 ± 0.00031
[3]; m1 = 0.00038
  refractive index: 1.4978 ± 0.00031
[3]; m1 = 0.0008
  refractive index: 1.49794 ± 0.00031

## c1ccc(-c2ccc(-c3ccccc3)cc2)cc1 [p-terphenyl]
[1]
  molar enthalpy: 29 ± 1 kcal/mol

## c1ccccc1 [benzene] + c1ccc(-c2c3ccccc3c(-c3ccccc3)c3ccccc23)cc1
[2]; m2 = 0
  mass density: 873.534 ± 0.89 kg/m3
[3]; m2 = 0
  refractive index: 1.49752 ± 0.00031

## c1cc2ccc3cccc4ccc(c1)c2c34 [pyrene]
[1]
  molar enthalpy: 25.2 ± 0.789 kcal/mol

## c1ccc(-c2c(-c3ccccc3)c(-c3ccccc3)c3ccccc3c2-c2ccccc2)cc1 [1,2,3,4-tetraphenylnaphthalene]
[1]
  molar enthalpy: 39.4 ± 1.48 kcal/mol

## c1ccc(-c2cccc(-c3ccccc3)c2-c2ccccc2)cc1 [1,2,3-triphenylbenzene]
[1]
  molar enthalpy: 33.1 ± 1 kcal/mol

## c1ccc(-c2c3ccccc3cc3ccccc23)cc1 [9-phenylanthracene]
[1]
  molar enthalpy: 30 ± 0.765 kcal/mol

## c1ccc(-c2c(-c3ccccc3)c(-c3ccccc3)c3ccccc3c2-c2ccccc2)cc1 [1,2,3,4-tetraphenylnaphthalene] + c1ccccc1
[2]; m1 = 8e-05
  mass density: 873.38 ± 1.3 kg/m3
[2]; m1 = 0.00011
  mass density: 873.424 ± 1.2 kg/m3
[2]; m1 = 0.00017
  mass density: 873.488 ± 1.2 kg/m3 and 873.494 ± 1.2 kg/m3
[2]; m1 = 0.00022
  mass density: 873.551 ± 1.3 kg/m3
[3]; m1 = 0.0008
  refractive index: 1.49737 ± 0.00031
[3]; m1 = 0.0011
  refractive index: 1.4974 ± 0.00031
[3]; m1 = 0.0017
  refractive index: 1.49744 ± 0.00031 and 1.49745 ± 0.00031
[3]; m1 = 0.0022
  refractive index: 1.49748 ± 0.00031

## c1ccc2cc3c(ccc4ccccc43)cc2c1 [benz[a]anthracene]
[1]
  molar enthalpy: 27.8 ± 0.741 kcal/mol

## c1ccccc1 [benzene] + c1ccc(-c2cccc(-c3ccccc3)c2)cc1
[2]; m2 = 0
  mass density: 873.483 ± 0.54 kg/m3
[3]; m2 = 0
  refractive index: 1.49772 ± 0.00031

## c1ccc(-c2c3ccccc3c(-c3ccccc3)c3ccccc23)cc1 [9,10-diphenylanthracene] + c1ccccc1
[2]; m1 = 0.00012
  mass density: 873.64 ± 0.84 kg/m3
[2]; m1 = 0.00016
  mass density: 873.666 ± 0.93 kg/m3
[2]; m1 = 0.00022
  mass density: 873.731 ± 1.1 kg/m3
[2]; m1 = 0.00028
  mass density: 873.796 ± 1.1 kg/m3
[2]; m1 = 0.0003
  mass density: 873.822 ± 1.3 kg/m3
[3]; m1 = 0.00012
  refractive index: 1.49761 ± 0.00031
[3]; m1 = 0.00016
  refractive index: 1.49763 ± 0.00031
[3]; m1 = 0.00022
  refractive index: 1.49768 ± 0.00031
[3]; m1 = 0.00028
  refractive index: 1.49773 ± 0.00031
[3]; m1 = 0.0003
  refractive index: 1.49776 ± 0.00031

## c1ccc2c(c1)-c1cccc3cccc-2c13 [fluoranthene]
[1]
  molar enthalpy: 24.1 ± 0.669 kcal/mol
